The values below come from publication PMC9570898, “Comparing Variants of the Cell-Penetrating Peptide sC18 to Design Peptide-Drug Conjugates” (Molecules, 2022).

What all share (format): cell-based, human
The subject of data set [1] is HEK293 cells. The data set is described as follows: Cellular uptake by flow cytometry in HEK293 cells. Particulars: 1 and 10 µM CF-labeled peptide, 30 min, 37 °C, serum-free medium, triplicate n = 3. How it is done:
(§1) Monolayer cellular uptake was quantified using flow cytometry. Cells were seeded onto a 24-well plate (HeLa: 90,000, HEK293: 100,000 and MCF-7 130,000 cells per well) and grown to 80–90% confluency. Then, cells were incubated with the labeled peptides/conjugates in a serum-free medium at 37 °C for various incubation times, and subsequently washed twice with PBS and detached with indicator-free trypsin resuspended in an indicator-free serum-containing medium. The cell suspension was transferred into a 96-well FACS plate and fluorescence was then measured by a Guava easyCyte flow cytometer (Merck, Darmstadt, Germany).The blue laser was used for all measurements, FSC (1137–1538), SSC (3020–4086), Grn-B (647–875) and Red-B (694–939). Cellular autofluorescence of untreated control cells was subtracted.

In data set [2] the test system is HeLa cells. Description: Cellular uptake by flow cytometry in HeLa cells. Particulars: 1 and 10 µM CF-labeled peptide, 30 min, 37 °C, serum-free medium, triplicate n = 3. On the procedure:
as §1

The subject of data set [3] is HEK293 cells. Description: Cytotoxicity (resazurin) assay in HEK293 cells. As to conditions: 24 h. Background: Resazurin is reduced to fluorescent resorufin, in cell work by metabolically active cells.
Experimental: For cell viability assay, cells were (15,000 HeLa, 17,000 MCF-7 and 12,000 HFF-1 cells per well) seeded onto a 96-well plate and grown to 80–90% confluency. Cells were incubated with several peptide concentrations in a serum-free growth medium for 24 h under standard growth conditions. For the positive control, cells were treated with 70% EtOH for 7 min. After washing with DPBS, resazurin solution (10% in serum-free media, v/v) was incubated with the cells for 1 h under standard growth conditions. The cell viability was determined relative to untreated cells by measurement of the resorufin product at 595 nm (λex = 550 nm) on a Tecan infinite M200 plate reader (Tecan Group AG, Männedorf, Switzerland).
Cells were cultured and incubated at pH 7.4 for 24 h with different concentrations of peptide solutions. Untreated cells served as negative control; cells treated with 70% ethanol as positive control. Values from the positive control were subtracted from all data, and the untreated cells were set to 100%; assays were performed with n = 3 in triplicate.
The test system of data set [4] is HEK-293 spheroids. Description: Flow cytometry of HEK-293 spheroids. Particulars: 10 µM CF-labeled peptides, 30 min or 1 h. On the procedure:
For the preparation and seeding of spheroids, cells were washed and trypsinized as described above. Cells were transferred into a fresh 15 mL centrifuge tube and centrifuged for 5 min at 300× g and rt. The supernatant was removed carefully and the pellet was resuspended in an appropriate medium supplemented with FBS. Cells were counted and a cell mixture was prepared, which would be sufficient for 100 drops (3 mL). Within this mixture a total amount of 1.5 × 10^6 cells (HEK-293 and HeLa cells) and 20% (v/v) methylcellulose (1.2 mg/mL) were required. The missing volume was filled up with an appropriate medium containing FBS; 30 μL drops were pipetted into the inverted lid of a petri dish (15,000 cells per drop), the bottom was covered with PBS and spheroids were grown in hanging drops for two or three days at 37 °C and 5% CO2, respectively.
For flow cytometry studies with tumor spheroids, the spheroids were prepared and grown as described above (4.7). […] After the spheroids started to fall apart, 850 μL of medium with FBS (indicator free) was added and the spheroids were resuspended to generate a homogenous cell suspension; 200 μL of each sample were transferred into a fresh round-bottom 96-well plate and analyzed on a Guava® easyCyte flow cytometer (Merck, Darmstadt, Germany). […]
(Flow cytometry measures light scatter and fluorescence of single cells or particles in a stream.)

No end group written: not given here.

Consider RLRKLLRKFLRK-NH2 [sC18*^R,L], for which the “cellular uptake” value is “highly significant and enhanced internalization” in data set [1]; “highly significant and enhanced internalization” in data set [2]. For the same substance, in data set [3], the “concentration at which toxic effect started” value is listed as 50 µM. For the same substance, in data set [4], the “accumulation in spheroids” value is listed as “most efficient variants”.
